Legend:
[1] = tested on: GFAP (astrocyte activation); assay: GFAP immunoreactivity in brain slices, mouse model of MPS IIIB; assay type: in vivo
Procedure: (§1) Brain slices were taken along the rostro caudal axis in a serial section. Quantification using the brain slices was performed using Image Pro Premiere software.
(§2) The breeding pairs of MPS IIIB mice were obtained from Jackson Laboratory (JAX stock #003827) and a MPS IIIB mouse colony was established. In MPS IIIB or Sanfillipo syndrome mice, both alleles of alpha-N-acetylglucosaminidase (NAGLU) are disrupted, knocked out (KO), by insertion of a neomycin resistance gene via homologous recombination. Gografe S I; Garbuzova-Davis S; Willing A E; Haas K; Chamizo W; Sanberg P R. Mouse model of Sanfilippo syndrome type B: relation of phenotypic features to background strain Comp Med 53(6):622-32. […] The heterozygous (Het) mice have only one allele of the NAGLU gene disrupted and can fully metabolize HS.
(§3) FIG. 1A and FIG. 1B show bar graphs of the percentage staining of Cluster of Differentiation 68 (CD68) and glial fibrillary acidic protein (GFAP), respectively, in serial section (one every twelve sections of 40 um thick) along the rostrocaudal axis of the brain after 30 days. […]
(§4) Quantification of brain slices was performed using Image Pro Premiere software.
(§5) After 30 days, animals were sacrificed and brain slices were taken along the rostro caudal axis in a serial section. Quantification was performed using Image Pro Premiere software.

[2] = tested on: CD68 (microglia activation); assay: CD68 immunoreactivity in brain slices, mouse model of MPS IIIB; assay type: in vivo
Procedure: as §1, §2, §3, §4, §5

[3] = target: CB2 endocannabinoid receptor (Homo sapiens, UniProt P34972); settings: cited from earlier work
Chain of CB2 endocannabinoid receptor (P34972 whole entry): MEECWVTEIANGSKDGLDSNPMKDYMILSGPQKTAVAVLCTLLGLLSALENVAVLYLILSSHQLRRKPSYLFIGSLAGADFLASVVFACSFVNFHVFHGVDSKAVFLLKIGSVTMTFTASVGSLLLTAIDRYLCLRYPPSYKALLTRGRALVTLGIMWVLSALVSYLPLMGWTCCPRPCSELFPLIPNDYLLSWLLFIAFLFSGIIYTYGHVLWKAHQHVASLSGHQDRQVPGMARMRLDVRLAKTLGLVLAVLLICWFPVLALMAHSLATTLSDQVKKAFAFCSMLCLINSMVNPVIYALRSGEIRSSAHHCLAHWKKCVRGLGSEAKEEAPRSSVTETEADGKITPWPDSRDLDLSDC

[4] = tested on: inflammatory signaling molecules; assay: Inflammatory signaling molecules in plasma and CSF, mouse model of MPS IIIB; assay type: in vivo; settings: MPS IIIB KO mice, 100, 33 or 10 mg/kg/day oral, after 6 months, vs vehicle control
Source text: In particular, less of one or more of IL-1alpha, IL1beta, IL-2, IL-4, IL-6, IL-8, 11-10, IL-17A, IL-23, INF-gamma, MCP-1, caspase-1, caspase-3, TNF-alpha, and TGF-beta-alpha is expected.

[5] = target: voltage-gated sodium channel Nav 1.6 receptor (Homo sapiens, UniProt Q9UQD0); settings: cited from earlier work
Chain of voltage-gated sodium channel Nav 1.6 receptor (Q9UQD0 whole entry): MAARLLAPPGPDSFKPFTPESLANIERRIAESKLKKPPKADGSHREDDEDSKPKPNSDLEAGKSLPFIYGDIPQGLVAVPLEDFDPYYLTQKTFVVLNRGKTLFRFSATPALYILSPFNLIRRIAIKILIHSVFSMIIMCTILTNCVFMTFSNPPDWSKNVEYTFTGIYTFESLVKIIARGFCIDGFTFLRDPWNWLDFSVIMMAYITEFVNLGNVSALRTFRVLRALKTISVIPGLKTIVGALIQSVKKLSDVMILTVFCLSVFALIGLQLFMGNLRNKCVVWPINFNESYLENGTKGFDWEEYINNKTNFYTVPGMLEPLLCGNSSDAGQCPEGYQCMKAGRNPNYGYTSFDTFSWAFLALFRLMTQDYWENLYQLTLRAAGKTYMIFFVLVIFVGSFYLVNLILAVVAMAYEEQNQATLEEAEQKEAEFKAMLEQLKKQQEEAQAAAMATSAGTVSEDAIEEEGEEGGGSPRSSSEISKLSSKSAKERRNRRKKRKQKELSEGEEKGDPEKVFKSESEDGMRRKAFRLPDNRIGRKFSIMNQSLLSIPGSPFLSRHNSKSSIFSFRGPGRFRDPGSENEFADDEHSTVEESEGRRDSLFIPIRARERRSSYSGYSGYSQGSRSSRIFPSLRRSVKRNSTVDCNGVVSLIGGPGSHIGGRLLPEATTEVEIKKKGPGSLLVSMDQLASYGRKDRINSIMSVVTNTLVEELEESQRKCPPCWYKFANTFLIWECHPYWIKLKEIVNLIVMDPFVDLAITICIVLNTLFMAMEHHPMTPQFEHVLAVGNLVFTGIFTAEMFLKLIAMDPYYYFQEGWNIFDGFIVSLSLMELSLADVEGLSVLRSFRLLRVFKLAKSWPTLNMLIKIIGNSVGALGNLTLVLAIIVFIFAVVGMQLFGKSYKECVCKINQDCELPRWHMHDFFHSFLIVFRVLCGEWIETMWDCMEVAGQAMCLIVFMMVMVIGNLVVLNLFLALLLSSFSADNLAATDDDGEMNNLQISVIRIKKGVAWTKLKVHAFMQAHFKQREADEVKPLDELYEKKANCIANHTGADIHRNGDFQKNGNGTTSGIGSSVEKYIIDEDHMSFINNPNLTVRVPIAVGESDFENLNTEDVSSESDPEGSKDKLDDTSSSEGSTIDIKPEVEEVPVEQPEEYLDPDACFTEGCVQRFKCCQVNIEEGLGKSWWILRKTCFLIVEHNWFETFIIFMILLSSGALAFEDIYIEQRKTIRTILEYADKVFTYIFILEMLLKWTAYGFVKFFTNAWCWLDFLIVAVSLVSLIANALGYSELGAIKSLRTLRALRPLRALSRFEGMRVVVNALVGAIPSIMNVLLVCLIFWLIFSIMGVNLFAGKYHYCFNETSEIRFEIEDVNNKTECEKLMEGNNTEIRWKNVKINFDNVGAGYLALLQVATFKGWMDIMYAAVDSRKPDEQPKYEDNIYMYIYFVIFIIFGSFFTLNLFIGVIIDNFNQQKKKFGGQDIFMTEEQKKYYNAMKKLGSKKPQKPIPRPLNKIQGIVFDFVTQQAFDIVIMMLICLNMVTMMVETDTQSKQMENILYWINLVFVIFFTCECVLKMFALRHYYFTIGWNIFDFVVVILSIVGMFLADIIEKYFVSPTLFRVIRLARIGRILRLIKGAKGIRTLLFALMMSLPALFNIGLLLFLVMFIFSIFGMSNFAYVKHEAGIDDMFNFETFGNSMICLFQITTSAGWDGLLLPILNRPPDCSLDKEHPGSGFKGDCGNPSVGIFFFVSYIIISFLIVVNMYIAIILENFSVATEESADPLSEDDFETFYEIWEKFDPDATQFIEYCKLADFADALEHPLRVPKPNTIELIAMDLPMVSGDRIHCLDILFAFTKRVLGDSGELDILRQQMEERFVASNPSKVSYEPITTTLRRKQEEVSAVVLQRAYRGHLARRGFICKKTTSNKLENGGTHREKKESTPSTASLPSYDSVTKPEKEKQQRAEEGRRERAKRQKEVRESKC

MPS IIIB KO mice = assay: Behavioral and cognitive tests in mouse model of MPS IIIB; assay type: in vivo; settings: MPS IIIB KO mice, 100, 33 or 10 mg/kg/day oral, after 6 months, vs vehicle control
Procedure: CBD or vehicle is administered daily by oral gavage. […] At baseline, and after 3, 6, and 9 months, the mice are given behavioral tests to measure hyperactive and social interaction, and cognitive tests to measure spatial memory and learning deficits.

[6] = in vivo; cited from earlier work
[7] = 9-month old MPS IIIB KO mice, 100 mg/kg CBD in sesame oil, oral gavage once daily for 30 days, vs KO mice given vehicle
[8] = MPS IIIB KO mice, 100 mg/kg oral, 30 days, representative brain slices

Row | Molecule | decrease in the immunoreactivity of GFAP (% area) in brain [1, 7] [%] | astrocyte cell neuroinflammation and activation (GFAP) [1, 8] | decrease in the immunoreactivity of CD68 (% area) in brain [2, 7] [%] | microglia cell neuroinflammation and activation (CD68) [2, 8] | affinity to CB2 receptor [3] | inflammatory signaling molecules in plasma and CSF [4] | IC50 [5] [µM] | affinity to Nav 1.6 receptor [5] | hyperactivity (MPS IIIB KO mice) | learning deficit (MPS IIIB KO mice) | social interaction (MPS IIIB KO mice) | spatial memory (MPS IIIB KO mice) | crossing of the BBB [6]
1 | C=C(C)[C@@H]1CCC(C)=C[C@H]1c1c(O)cc(CCCCC)cc1O [CBD, Cannabidiol] | 50 | significantly decreases | 30 | significantly decreases | uM affinity | less inflammatory signaling molecules | 1 to 6 | uM affinity | less hyperactivity | less learning deficit | more social interaction | less loss of spatial memory | 
2 | Adalimumab |  |  |  |  |  |  |  |  |  |  |  |  | does not cross the BBB

Reference: patent publication US20240082268A1, “METHODS AND COMPOSITIONS FOR CONTROLLING NEUROINFLAMMATION” (Invenux, LLC, priority 2021, published 2024)
